Test results published in patent publication US11878970B2, “Allosteric chromenone inhibitors of phosphoinositide 3-kinase (PI3K) for the treatment of disease” (Petra Pharma Corporation, priority 2021, dated 2024).
pIC50: −log10 of the molar value.

Key:
[1] = biological target: T1, PI3K-α (PIK3CA) wild-type (WT), p110α/p85α complex (Homo sapiens, UniProt P42336); experiment: PI3K-alpha kinase (PIK3CA) biochemical activity, ADP-Glo, wild-type; conditions: Soy PI lipid substrate
T1 construct: Recombinant, catalytically active human full length PIK3KA Wild-type and H1047R mutant; 6×His (N); purchased EMD Millipore Sigma 14-602M
Summary of the method: (§1)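 ADP formation measured by ADP-Glo luminescence after reaction at 27 °C to about 10% ATP turnover, using 20 uM ATP, 50 uM PIP2diC8 or soy PI lipid, HEPES pH 7.4 with MgCl2. Enzyme (1-5 nM WT or H1047R p110α/p85α) and compound preincubated 1 h first; 10-point 1:3 curves fitted four-parameter for IC50.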

[2] = biological target: T2, PI3K-α (PIK3CA) H1047R mutant, p110α/p85α complex (Homo sapiens, UniProt P42336, H1047R); experiment: PI3K-alpha kinase (PIK3CA) biochemical activity, ADP-Glo, H1047R mutant; conditions: Soy PI lipid substrate
T2 construct: Recombinant, catalytically active human full length PIK3KA Wild-type and H1047R mutant; 6×His (N); purchased EMD Millipore Sigma 14-792M
Summary of the method: as §1

[3] = biological target: PI3K-α (PIK3CA) in MDA-MB-453 cells (Homo sapiens, UniProt P42336); experiment: PI3K-alpha kinase (PIK3CA) in vitro cell based assay, MDA-MB-453 cells, SureFire Ultra AlphaLisa; conditions: read-out: PI3K-α (PIK3CA) in vitro cell based assay IC50
Summary of the method: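 Cells treated 3 h in serum-free MEM with 1 μg/mL insulin, 10-point 1:3 series in 0.3% DMSO, then lysed for SureFire Ultra AlphaLisa read-out. Inhibition normalized to DMSO (max) and 1 μM GDC-0032 (min); duplicate averages fitted by 4-parameter logistic for relative IC50.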

PI3K-α (PIK3CA) in MDA-MB-453 cells, sequence (P27986 2-724): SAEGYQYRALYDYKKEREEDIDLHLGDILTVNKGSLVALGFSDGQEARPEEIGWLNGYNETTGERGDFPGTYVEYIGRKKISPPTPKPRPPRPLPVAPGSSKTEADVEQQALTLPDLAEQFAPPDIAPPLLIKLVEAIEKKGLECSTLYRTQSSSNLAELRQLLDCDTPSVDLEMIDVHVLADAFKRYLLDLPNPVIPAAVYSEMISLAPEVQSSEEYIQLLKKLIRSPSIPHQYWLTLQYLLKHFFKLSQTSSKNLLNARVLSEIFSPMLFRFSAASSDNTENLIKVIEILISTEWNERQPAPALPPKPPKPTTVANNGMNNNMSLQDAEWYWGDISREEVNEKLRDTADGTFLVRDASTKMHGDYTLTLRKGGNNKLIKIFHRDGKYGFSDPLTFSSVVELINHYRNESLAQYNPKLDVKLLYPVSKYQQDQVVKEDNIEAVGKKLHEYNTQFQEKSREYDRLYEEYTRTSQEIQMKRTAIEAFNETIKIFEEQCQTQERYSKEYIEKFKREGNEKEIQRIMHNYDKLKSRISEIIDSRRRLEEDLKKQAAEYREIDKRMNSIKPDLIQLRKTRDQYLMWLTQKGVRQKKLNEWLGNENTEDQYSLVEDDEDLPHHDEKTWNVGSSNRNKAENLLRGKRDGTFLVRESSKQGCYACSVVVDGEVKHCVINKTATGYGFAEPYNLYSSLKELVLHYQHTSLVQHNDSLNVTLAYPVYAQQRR
PI3K-α (PIK3CA) in MDA-MB-453 cells, sequence (P42336 whole entry): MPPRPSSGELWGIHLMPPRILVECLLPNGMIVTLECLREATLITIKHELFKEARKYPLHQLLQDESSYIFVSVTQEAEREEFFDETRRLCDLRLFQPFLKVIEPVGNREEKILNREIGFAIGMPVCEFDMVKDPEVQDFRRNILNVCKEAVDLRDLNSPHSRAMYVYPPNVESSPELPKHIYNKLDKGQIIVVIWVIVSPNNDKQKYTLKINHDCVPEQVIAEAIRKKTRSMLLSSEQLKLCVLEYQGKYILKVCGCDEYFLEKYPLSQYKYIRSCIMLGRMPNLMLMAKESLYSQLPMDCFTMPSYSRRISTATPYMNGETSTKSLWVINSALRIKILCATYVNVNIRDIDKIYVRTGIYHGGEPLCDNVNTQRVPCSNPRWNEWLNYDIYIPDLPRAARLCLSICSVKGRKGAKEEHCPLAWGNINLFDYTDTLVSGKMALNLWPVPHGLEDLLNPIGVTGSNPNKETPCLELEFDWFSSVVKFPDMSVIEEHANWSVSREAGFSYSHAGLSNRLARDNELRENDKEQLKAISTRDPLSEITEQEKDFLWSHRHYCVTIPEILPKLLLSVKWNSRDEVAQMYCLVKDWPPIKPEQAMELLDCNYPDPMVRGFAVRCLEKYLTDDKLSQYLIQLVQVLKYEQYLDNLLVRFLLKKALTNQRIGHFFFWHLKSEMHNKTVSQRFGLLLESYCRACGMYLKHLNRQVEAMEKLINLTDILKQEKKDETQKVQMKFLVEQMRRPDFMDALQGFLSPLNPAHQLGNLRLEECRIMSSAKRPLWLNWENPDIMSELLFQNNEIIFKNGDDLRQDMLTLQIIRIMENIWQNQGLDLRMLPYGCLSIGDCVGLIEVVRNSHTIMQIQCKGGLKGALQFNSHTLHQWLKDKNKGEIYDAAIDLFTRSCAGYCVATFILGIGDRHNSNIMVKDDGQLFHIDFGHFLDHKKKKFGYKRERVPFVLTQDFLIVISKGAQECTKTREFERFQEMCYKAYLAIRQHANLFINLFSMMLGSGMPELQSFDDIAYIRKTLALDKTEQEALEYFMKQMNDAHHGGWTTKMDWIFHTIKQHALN
T2 sequence (P42336 whole entry H1047R): as the sequence (P42336 whole entry) above, with H1047R counted along it
T2 sequence (P27986 whole entry partner): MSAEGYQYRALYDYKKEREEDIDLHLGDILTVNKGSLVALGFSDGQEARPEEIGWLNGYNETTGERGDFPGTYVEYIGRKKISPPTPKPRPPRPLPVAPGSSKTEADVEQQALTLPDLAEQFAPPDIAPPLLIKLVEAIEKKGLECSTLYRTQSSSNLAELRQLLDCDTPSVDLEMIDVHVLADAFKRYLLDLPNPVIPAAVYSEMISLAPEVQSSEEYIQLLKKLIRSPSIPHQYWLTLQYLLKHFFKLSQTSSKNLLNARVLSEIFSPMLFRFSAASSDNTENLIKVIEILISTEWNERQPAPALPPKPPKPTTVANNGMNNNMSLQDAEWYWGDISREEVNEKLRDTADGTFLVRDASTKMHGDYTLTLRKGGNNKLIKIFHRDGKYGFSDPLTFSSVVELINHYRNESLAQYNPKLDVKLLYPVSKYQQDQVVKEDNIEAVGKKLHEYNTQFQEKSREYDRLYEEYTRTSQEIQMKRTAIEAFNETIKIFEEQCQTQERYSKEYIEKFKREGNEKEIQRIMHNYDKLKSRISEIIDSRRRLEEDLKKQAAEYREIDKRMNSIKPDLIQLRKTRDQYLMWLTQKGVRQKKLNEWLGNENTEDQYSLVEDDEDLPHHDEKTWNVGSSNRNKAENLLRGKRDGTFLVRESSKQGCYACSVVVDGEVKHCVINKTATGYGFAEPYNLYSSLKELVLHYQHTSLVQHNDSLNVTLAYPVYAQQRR

Compound	pIC50 [1]	pIC50 [2]	pIC50 [3]
Cc1cc(C(C)Nc2ccc(Cl)nc2C(=O)O)c2oc(-c3ccc4cc[nH]c4n3)cc(=O)c2c1 (single isomer, unassigned) [Example 215, 6-Chloro-3-[1-[6-methyl-4-oxo-2-(1H-pyrrolo[2,3-b]pyridin-6-yl)chromen-8-yl]ethylamino]pyridine-2-carboxylic acid]	6.00 to 6.30	> 6.30	> 7.30
Cc1cc(C(C)Nc2ccccc2C(=O)O)c2oc(-c3ccc4cc[nH]c4c3)cc(=O)c2c1 (stereo not drawn) [Example 18, 2-[1-[2-(1H-Indol-6-yl)-6-methyl-4-oxo-chromen-8-yl]ethylamino]benzoic acid]	5.30 to 6.00	> 6.30	6.30 to 7.00
Cc1cc([C@@H](C)Nc2cccc(F)c2C(=O)O)c2oc(-c3cc4cnccc4o3)c(C)c(=O)c2c1 [Example 264, 2-Fluoro-6-[[(1R)-1-(2-furo[3,2-c]pyridin-2-yl-3,6-dimethyl-4-oxo-chromen-8-yl)ethyl]amino]benzoic acid; 2,2,2-trifluoroacetic acid]	> 6.30	> 6.30	> 7.30
Cc1cc(C(C)Nc2ccccc2C(=O)O)c2oc(-c3cnc4ccccn34)cc(=O)c2c1 (single isomer, unassigned) [Example 145, 2-[1-(2-Imidazo[1,2-a]pyridin-3-yl-6-methyl-4-oxo-chromen-8-yl)ethylamino]benzoic acid]	5.30 to 6.00	> 6.30	6.30 to 7.00
CC(Nc1ccc(Cl)nc1C(=O)O)c1cc(C(F)(F)F)cc2c(=O)cc(-c3cc(Cl)c4nn(C)cc4c3)oc12 (single isomer, unassigned) [Example 193, 6-Chloro-3-[1-[2-(7-chloro-2-methyl-indazol-5-yl)-4-oxo-6-(trifluoromethyl)chromen-8-yl]ethylamino]pyridine-2-carboxylic acid]	6.00 to 6.30	> 6.30	> 7.30
C[C@@H](Nc1ccc(Cl)nc1C(=O)O)c1cc(C(F)(F)F)cc2c(=O)cc(-c3ccc4nn(C)cc4c3)oc12 [Example 169, 6-Chloro-3-[[(1R)-1-[2-(2-methylindazol-5-yl)-4-oxo-6-(trifluoromethyl)chromen-8-yl]ethyl]amino]pyridine-2-carboxylic acid]	6.00 to 6.30	> 6.30	7.00 to 7.30
Cc1cc(C(C)Nc2ccccc2C(=O)O)c2oc(-c3cc(F)c4nn(C)cc4c3)cc(=O)c2c1 (single isomer, unassigned) [Example 97, 2-[1-[2-(7-Fluoro-2-methyl-indazol-5-yl)-6-methyl-4-oxo-chromen-8-yl]ethylamino]benzoic acid]	5.30 to 6.00	> 6.30	> 7.30
Cc1cc([C@@H](C)Nc2cccnc2C(=O)O)c2oc(-c3nn(C)c4ccccc34)c(C)c(=O)c2c1 [Example 205, 3-[[(1R)-1-[3,6-Dimethyl-2-(1-methylindazol-3-yl)-4-oxo-chromen-8-yl]ethyl]amino]pyridine-2-carboxylic acid]	< 5.00	5.30 to 6.00	7.00 to 7.30

The next lines start with the values.

pIC50 [1]	pIC50 [2]	pIC50 [3]	Compound
6.00 to 6.30	> 6.30	> 7.30	Cc1cc([C@@H](C)Nc2cccc(F)c2C(=O)O)c2oc(-c3ccc4nn(C)cc4c3)c(C)c(=O)c2c1 [Example 227, 2-[[(1R)-1-[3,6-Dimethyl-2-(2-methylindazol-5-yl)-4-oxo-chromen-8-yl]ethyl]amino]-6-fluoro-benzoic acid]
5.30 to 6.00	5.30 to 6.00	< 6.30	Cc1cc(C(C)Nc2ccc(Cl)nc2C(=O)O)c2oc(-c3ccc4c(cnn4C)c3)cc(=O)c2c1 (single isomer, unassigned) [Example 217, 6-Chloro-3-[1-[6-methyl-2-(1-methylindazol-5-yl)-4-oxo-chromen-8-yl]ethylamino]pyridine-2-carboxylic acid]
5.00 to 5.30	5.30 to 6.00	6.30 to 7.00	Cc1cc([C@@H](C)Nc2ccc(C)nc2C(=O)O)c2oc(-c3ccc4nc(C)sc4n3)cc(=O)c2c1 [Example 250, 6-Methyl-3-[[(1R)-1-[6-methyl-2-(2-methylthiazolo[5,4-b]pyridin-5-yl)-4-oxo-chromen-8-yl]ethyl]amino]pyridine-2-carboxylic acid]
5.30 to 6.00	> 6.30	6.30 to 7.00	Cc1cc([C@@H](C)Nc2ccc(C)nc2C(=O)O)c2oc(-c3ccc4nc(C)cn4c3)cc(=O)c2c1 [Example 225, 6-Methyl-3-[[(1R)-1-[6-methyl-2-(2-methylimidazo[1,2-a]pyridin-6-yl)-4-oxo-chromen-8-yl]ethyl]amino]pyridine-2-carboxylic acid]
